In patent publication US8173788B2, “Peptide having ability to activate cancer-related gene” (priority 2005, dated 2012):

Tested on: human normal peripheral blood monocyte
Assay: Influence of the artificially synthesized peptide on normal cell genes: coculture 7 hr, DNA chip system (Clontech), about 55000 human genes (Table 4)
Format: cell-based
Conditions: Suppressed Gene, Immune System Gene
Procedure: (a) The peptide obtained in Example 3 was added to a human normal peripheral blood monocyte culture system (10 to 100 μg peptide/1×10^6 to 1×10^7 monocytes), and they were cocultured for 7 hr. Then, mRNA was extracted from the monocytes and was applied to analysis for up-regulation and down-regulation in respect to about 55000 human genes by using DNA chip system (Clontech).

[1] = Gene No. 12812, ovarian carcinoma immunoreactive antigen (OCIA)
[2] = Gene No. 14949, programmed cell death 10 (PDCD10), transcript variant 1
[3] = Gene No. 15907, intercellular adhesion molecule 2 (ICAM2)
[4] = Gene No. 15994, beta-2-microglobulin (B2M)
[5] = Gene No. 16478, tumor necrosis factor (ligand) superfamily, member 12 (TNFSF12), transcript variant 1, mRNA
[6] = Gene No. 16756, major histocompatibility complex, class I, E (HLA-E)
[7] = Gene No. 17177, tumor necrosis factor superfamily, member 5-induced protein 1 (TNFSF5IP1)
[8] = Gene No. 18139, major histocompatibility complex, class II, DQ alpha 1 (HLA-DQA1)
[9] = Gene No. 18884, (clone 38-1) MHC class I mRNA fragment.
[10] = Gene No. 20551, IL2-inducible T-cell kinase (ITK)
[11] = Gene No. 20881, natural killer cell transcript 4 (NK4)
[12] = Gene No. 21487, programmed cell death 2 (PDCD2), transcript variant 1
[13] = Gene No. 22326, immune associated nucleotide 2 (hIAN2)
[14] = Gene No. 22789, CASP8 and FADD-like apoptosis regulator (CFLAR)
[15] = Gene No. 22868, lymphocyte cytosolic protein 2 (SH2 domain containing leukocyte protein of 76 kDa) (LCP2)
[16] = Gene No. 22890, NK inhibitory receptor precursor (NKIR)
[17] = Gene No. 23827, major histocompatibility complex, class II, DM alpha (HLA-DMA)
[18] = Gene No. 24440, THYMUS cDNA clone CS0CAP007YL06 5-PRIME
[19] = Gene No. 24969, CD69 antigen (p60, early T-cell activation antigen) (CD69)
[20] = Gene No. 34736, adhesion molecule AMICA (AMICA)
[21] = Gene No. 37068, immediate early response 2 (IER2)
[22] = Gene No. 37445, mal, T-cell differentiation protein (MAL), transcript variant d
[23] = Gene No. 37834, proteasome (prosome, macropain) 26S subunit, non-ATPase, 1 (PSMD1)
[24] = Gene No. 38103, tumor necrosis factor receptor superfamily, member 7 (TNFRSF7)
[25] = Gene No. 38879, interferon stimulated gene 20 kDa (ISG20)
[26] = Gene No. 39926, thymosin-like 6 (TMSL6)
[27] = Gene No. 39991, lymphotoxin beta (TNF superfamily, member 3) (LTB), transcript variant 2
[28] = Gene No. 40727, linker for activation of T cells (LAT)
[29] = Gene No. 41726, apoptosis-associated speck-like protein containing a CARD (ASC), transcript variant 1
[30] = Gene No. 41803, programmed cell death 2 (PDCD2), transcript variant 2
[31] = Gene No. 41817, major histocompatibility complex, class I, F (HLA-F)
[32] = Gene No. 42474, programmed cell death 6 (PDCD6)
[33] = Gene No. 42573, T-cell activation protein (PGR1)
[34] = Gene No. 42614, killer cell lectin-like receptor subfamily K, member 1 (KLRK1)
[35] = Gene No. 42661, proteasome (prosome, macropain) subunit, beta type, 9 (large multifunctional protease 2) (PSMB9), transcript variant 1
[36] = Gene No. 42680, proteasome (prosome, macropain) 26S subunit, ATPase, 4 (PSMC4), transcript variant 1
[37] = Gene No. 42813, granzyme A (granzyme 1, cytotoxic T-lymphocyte-associated serine esterase 3) (GZMA)
[38] = Gene No. 43032, interferon, gamma-inducible protein 16 (IFI16)
[39] = Gene No. 45767, HLA-B associated transcript 1 (BAT1), transcript variant 1
[40] = Gene No. 46186, cell death-regulatory protein GRIM19 (GRIM19)
[41] = Gene No. 47689, killer cell lectin-like receptor subfamily B, member 1 (KLRB1)
[42] = Gene No. 47973, CD8 antigen, beta polypeptide 1 (p37) (CD8B1), transcript variant 5
[43] = Gene No. 49170, interferon gamma receptor 2 (interferon gamma transducer 1) (IFNGR2)
[44] = Gene No. 49586, interleukin-1 receptor-associated kinase 4 (IRAK4)
[45] = Gene No. 49622, intercellular adhesion molecule 3 (ICAM3)
[46] = Gene No. 51004, tumor necrosis factor (ligand) superfamily, member 10 (TNFSF10)
[47] = Gene No. 52071, interferon (alpha, beta and omega) receptor 1 (IFNAR1)
[48] = Gene No. 52342, apoptosis-related protein PNAS-1 (FLJ39616)
[49] = Gene No. 52539, major histocompatibility complex, class II, DR alpha (HLA-DRA)
[50] = Gene No. 53172, transforming growth factor, beta 1 (Camurati-Engelmann disease) (TGFB1)

Q: Which “Suppression Ratio” value (Gene No. 11651, implantation-associated protein (DKFZp564K142)) does the source give for “the Peptide (QPQFGRRMESK; Human squamous cell carcinoma)” here?
A: 89.16

Q: And the “Expression Amount after Treatment with the Peptide” value (from here on “Expression Amount after Treatment”) [1]?
A: 24.53

Q: And the “Suppression Ratio” value [1]?
A: 47.97

Q: And the “Expression Amount after Treatment” value [2]?
A: 25.27

Q: And the “Suppression Ratio” value [2]?
A: 40.37

Q: And the “Expression Amount after Treatment” value [3]?
A: 6.364

Q: What about the “Suppression Ratio” value [3] of the same substance?
A: 143.4

Q: And the “Expression Amount after Treatment” value [4]?
A: 239.5

Q: And the “Suppression Ratio” value [4]?
A: 47.59

Q: And the “Expression Amount after Treatment” value [5]?
A: 6.018

Q: What about the “Suppression Ratio” value [5] of the same substance?
A: 110.2

Q: And the “Expression Amount after Treatment” value [6]?
A: 2.806

Q: And the “Suppression Ratio” value [6]?
A: 140.8

Q: What about the “Expression Amount after Treatment” value [7] of the same substance?
A: 26.16

Q: And the “Suppression Ratio” value [7]?
A: 39.51

Q: And the “Expression Amount after Treatment” value [8]?
A: 33.12

Q: And the “Suppression Ratio” value [8]?
A: 80.32

Q: And the “Expression Amount after Treatment” value [9]?
A: 3.387

Q: What about the “Suppression Ratio” value [9] of the same substance?
A: 100.2

Q: And the “Expression Amount after Treatment” value [10]?
A: 22.93

Q: And the “Suppression Ratio” value [10]?
A: 122.6

Q: What about the “Expression Amount after Treatment” value [11] of the same substance?
A: 38.17

Q: What about the “Suppression Ratio” value [11] of the same substance?
A: 172.9

Q: What about the “Expression Amount after Treatment” value [12] of the same substance?
A: 9.909

Q: And the “Suppression Ratio” value [12]?
A: 39.12

Q: What about the “Expression Amount after Treatment” value [13] of the same substance?
A: 9.743

Q: What about the “Suppression Ratio” value [13] of the same substance?
A: 113.2

Q: What about the “Expression Amount after Treatment” value [14] of the same substance?
A: 9.725

Q: What about the “Suppression Ratio” value [14] of the same substance?
A: 75.25

Q: What about the “Expression Amount after Treatment” value [15] of the same substance?
A: 6.525

Q: And the “Suppression Ratio” value [15]?
A: 82.73

Q: What about the “Expression Amount after Treatment” value [16] of the same substance?
A: 9.902

Q: And the “Suppression Ratio” value [16]?
A: 112.4

Q: What about the “Expression Amount after Treatment” value [17] of the same substance?
A: 29.78

Q: And the “Suppression Ratio” value [17]?
A: 80.72

Q: And the “Expression Amount after Treatment” value [18]?
A: 0.2348

Q: And the “Suppression Ratio” value [18]?
A: 59.63

Q: What about the “Expression Amount after Treatment” value [19] of the same substance?
A: 25.71

Q: And the “Suppression Ratio” value [19]?
A: 95.14

Q: And the “Expression Amount after Treatment” value [20]?
A: 29.08

Q: What about the “Suppression Ratio” value [20] of the same substance?
A: 136.7

Q: What about the “Expression Amount after Treatment” value [21] of the same substance?
A: 57.38

Q: What about the “Suppression Ratio” value [21] of the same substance?
A: 121.3

Q: And the “Expression Amount after Treatment” value [22]?
A: 14.875

Q: What about the “Suppression Ratio” value [22] of the same substance?
A: 112.4

Q: And the “Expression Amount after Treatment” value [23]?
A: 14.11

Q: And the “Suppression Ratio” value [23]?
A: 38.69

Q: What about the “Expression Amount after Treatment” value [24] of the same substance?
A: 5.778

Q: What about the “Suppression Ratio” value [24] of the same substance?
A: 121.8

Q: And the “Expression Amount after Treatment” value [25]?
A: 31.94

Q: And the “Suppression Ratio” value [25]?
A: 91.84

Q: What about the “Expression Amount after Treatment” value [26] of the same substance?
A: 317.7

Q: And the “Suppression Ratio” value [26]?
A: 54.8

Q: And the “Expression Amount after Treatment” value [27]?
A: 17.77

Q: What about the “Suppression Ratio” value [27] of the same substance?
A: 135.9

Q: And the “Expression Amount after Treatment” value [28]?
A: 28.17

Q: What about the “Suppression Ratio” value [28] of the same substance?
A: 42.75

Q: And the “Expression Amount after Treatment” value [29]?
A: 33.51

Q: And the “Suppression Ratio” value [29]?
A: 134.7

Q: What about the “Expression Amount after Treatment” value [30] of the same substance?
A: 0.82

Q: And the “Suppression Ratio” value [30]?
A: 108.8

Q: What about the “Expression Amount after Treatment” value [31] of the same substance?
A: 98.43

Q: And the “Suppression Ratio” value [31]?
A: 107.9

Q: And the “Expression Amount after Treatment” value [32]?
A: 17.04

Q: What about the “Suppression Ratio” value [32] of the same substance?
A: 68.35

Q: And the “Expression Amount after Treatment” value [33]?
A: 15.75

Q: And the “Suppression Ratio” value [33]?
A: 60.53

Q: And the “Expression Amount after Treatment” value [34]?
A: 4.848

Q: And the “Suppression Ratio” value [34]?
A: 129.2

Q: And the “Expression Amount after Treatment” value [35]?
A: 39.14

Q: What about the “Suppression Ratio” value [35] of the same substance?
A: 38.48

Q: And the “Expression Amount after Treatment” value [36]?
A: 42.03

Q: What about the “Suppression Ratio” value [36] of the same substance?
A: 38.46

Q: What about the “Expression Amount after Treatment” value [37] of the same substance?
A: 38.51

Q: What about the “Suppression Ratio” value [37] of the same substance?
A: 115.5

Q: What about the “Expression Amount after Treatment” value [38] of the same substance?
A: 4.446

Q: What about the “Suppression Ratio” value [38] of the same substance?
A: 116.8

Q: And the “Expression Amount after Treatment” value [39]?
A: 18.125

Q: What about the “Suppression Ratio” value [39] of the same substance?
A: 130.2

Q: And the “Expression Amount after Treatment” value [40]?
A: 25.55

Q: And the “Suppression Ratio” value [40]?
A: 55.07

Q: And the “Expression Amount after Treatment” value [41]?
A: 72.08

Q: And the “Suppression Ratio” value [41]?
A: 52.77

Q: And the “Expression Amount after Treatment” value [42]?
A: 9.639

Q: And the “Suppression Ratio” value [42]?
A: 153.6

Q: What about the “Expression Amount after Treatment” value [43] of the same substance?
A: 10.09

Q: And the “Suppression Ratio” value [43]?
A: 70.7

Q: What about the “Expression Amount after Treatment” value [44] of the same substance?
A: 2.716

Q: And the “Suppression Ratio” value [44]?
A: 91.49

Q: And the “Expression Amount after Treatment” value [45]?
A: 39.68

Q: And the “Suppression Ratio” value [45]?
A: 86.23

Q: And the “Expression Amount after Treatment” value [46]?
A: 8.725

Q: What about the “Suppression Ratio” value [46] of the same substance?
A: 39.65

Q: What about the “Expression Amount after Treatment” value [47] of the same substance?
A: 9.429

Q: And the “Suppression Ratio” value [47]?
A: 44.09

Q: What about the “Expression Amount after Treatment” value [48] of the same substance?
A: 18.72

Q: And the “Suppression Ratio” value [48]?
A: 64.11

Q: What about the “Expression Amount after Treatment” value [49] of the same substance?
A: 158.7

Q: And the “Suppression Ratio” value [49]?
A: 109.3

Q: And the “Expression Amount after Treatment” value [50]?
A: 6.56

Q: What about the “Suppression Ratio” value [50] of the same substance?
A: 88.02
